Results on 52 compounds are retold here after ChEMBL document CHEMBL6177960, “Rational design, optimization, and biological evaluation of novel pyrrolo-pyridone derivatives as potent and orally active Cbl-b inhibitors” (Eur J Med Chem, 2025).

Chain of E3 ubiquitin-protein ligase CBL-B (Q13191 whole entry): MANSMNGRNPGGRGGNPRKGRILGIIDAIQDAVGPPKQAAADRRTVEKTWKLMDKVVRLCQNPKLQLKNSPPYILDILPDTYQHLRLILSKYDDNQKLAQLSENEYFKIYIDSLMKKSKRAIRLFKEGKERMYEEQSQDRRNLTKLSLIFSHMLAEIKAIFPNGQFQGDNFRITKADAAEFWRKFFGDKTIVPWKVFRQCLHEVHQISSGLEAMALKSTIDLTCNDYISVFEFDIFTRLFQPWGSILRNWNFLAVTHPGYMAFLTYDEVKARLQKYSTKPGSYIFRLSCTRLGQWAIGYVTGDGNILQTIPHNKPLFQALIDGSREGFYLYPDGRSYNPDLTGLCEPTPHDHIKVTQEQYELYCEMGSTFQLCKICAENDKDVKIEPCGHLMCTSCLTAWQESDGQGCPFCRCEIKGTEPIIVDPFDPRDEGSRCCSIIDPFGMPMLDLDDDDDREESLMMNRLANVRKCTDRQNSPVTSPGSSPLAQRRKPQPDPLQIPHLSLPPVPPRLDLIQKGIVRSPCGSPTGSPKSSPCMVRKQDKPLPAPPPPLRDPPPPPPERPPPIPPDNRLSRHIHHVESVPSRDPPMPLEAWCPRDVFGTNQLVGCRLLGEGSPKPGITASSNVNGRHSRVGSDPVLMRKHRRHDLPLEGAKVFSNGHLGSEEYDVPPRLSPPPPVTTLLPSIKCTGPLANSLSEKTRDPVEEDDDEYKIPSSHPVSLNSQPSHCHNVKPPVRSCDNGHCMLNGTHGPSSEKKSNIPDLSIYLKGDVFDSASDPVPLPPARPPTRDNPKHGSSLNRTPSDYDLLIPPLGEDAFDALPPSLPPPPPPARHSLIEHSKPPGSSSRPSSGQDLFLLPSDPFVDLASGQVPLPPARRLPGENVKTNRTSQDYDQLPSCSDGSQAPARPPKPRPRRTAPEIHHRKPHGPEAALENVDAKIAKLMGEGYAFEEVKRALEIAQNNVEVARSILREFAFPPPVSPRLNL

The test addresses E3 ubiquitin-protein ligase CBL-B (Homo sapiens, UniProt Q13191). As to the kind of experiment: Binding affinity to Cbl-b (unknown origin) assessed as inhibition constant incubated for 60 mins by TR-FRET assay. For orientation: TR-FRET usually uses a lanthanide donor and a delayed reading to cut background.
As to `CO[C@H]1C[C@](c2cccc(-n3cc(C(F)(F)F)c4cc(CN5CCCC6(CC6)C5)[nH]c4c3=O)c2)(c2nncn2C)C1`, the Ki (in general, a dissociation constant, usually derived from enzyme kinetics or from competition with a known ligand) was determined as 9.3 nM.

On to `C[C@H]1CCCN(Cc2cc3c(C(F)(F)F)cn(-c4cccc([C@]5(c6nncn6C)C[C@@H](F)C5)c4)c(=O)c3[nH]2)C1`, for which the Ki was 1.25 nM.

In the case of `Cn1cnnc1C1(c2cccc(-n3cc(C(F)(F)F)c4cc(CN5CC6CC6C5)[nH]c4c3=O)c2)CCC1` (configuration not stated), the Ki was 2.34 nM.

As to `Cn1cnnc1[C@]1(c2cccc(-n3cc(C(F)(F)F)c4cc(CNC5(C)CCC5)[nH]c4c3=O)c2)C[C@H](C)C1`, the Ki worked out at 0.86 nM.

On to `C[C@H]1CCCN(Cc2cc3c(C(F)(F)F)cn(-c4cccc(C5(Cc6nncn6C)COC5)c4)c(=O)c3[nH]2)C1`, for which the inhibitory constant (Ki) came to 1.98 nM.

As to `CO[C@H]1C[C@](c2cccc(-n3cc(C(F)(F)F)c4cc(CN5CCC[C@H](C)C5)[nH]c4c3=O)c2)(c2nncn2C)C1`, the Ki was 1.68 nM.

Turning to `C[C@H]1CCCN(Cc2cc3c(C4CC4)cn(-c4cccc(C5(c6nncn6C)CC6(CC6)C5)c4)c(=O)c3[nH]2)C1`, the Ki turned out to be 1.58 nM.

Take `CCN(Cc1cc2c(C(F)(F)F)cn(-c3cccc([C@]4(c5nncn5C)C[C@@H](OC)C4)c3)c(=O)c2[nH]1)CC(C)C`: the Ki turned out to be 3.88 nM.

For the compound `CO[C@H]1C[C@@](c2cccc(-n3cc(C(F)(F)F)c4cc(CNC5(C)CCC5)[nH]c4c3=O)c2)(c2nncn2C)C1`, the inhibition constant (Ki) was found to be 1.4 nM.

In the case of `C[C@H]1CCCN(Cc2cc3c(C4CC4)cn(-c4cccc(C5(Cc6nncn6C)COC5)c4)c(=O)c3[nH]2)C1`, the Ki amounted to 1.43 nM.

Take `CO[C@H]1C[C@@](c2cccc(-n3cc(C(F)(F)F)c4cc(CN5CC6CCC(C6)C5)[nH]c4c3=O)c2)(c2nncn2C)C1`: the Ki was found to be 0.82 nM.

With `CO[C@H]1C[C@@](c2cccc(-n3cc(C(F)(F)F)c4cc(CN5CCC[C@H](C)C5)[nH]c4c3=O)c2)(c2nncn2C)C1`, the Ki turned out to be 1.39 nM.

For the compound `CCN(Cc1cc2c(C(F)(F)F)cn(-c3cccc([C@]4(c5nncn5C)C[C@@H](C)C4)c3)c(=O)c2[nH]1)CC(C)C`, the inhibition constant Ki amounted to 1.57 nM.

Turning to `Cn1cnnc1[C@]1(c2cccc(-n3cc(C(F)(F)F)c4cc(CN5CCC[C@H]6C[C@H]65)[nH]c4c3=O)c2)C[C@H](C)C1`, the Ki was 1.16 nM.

`Cc1cn(-c2cccc(C3(Cc4nncn4C)COC3)c2)c(=O)c2[nH]c(CN3CCC[C@H](C)C3)cc12`: the Ki amounted to 2.36 nM.

Turning to `Cn1cnnc1C1(c2cccc(-n3cc(C(F)(F)F)c4cc(CN5CCC[C@H]6C[C@H]65)[nH]c4c3=O)c2)CCC1`, the Ki was found to be 2 nM.

Regarding `C/C=C1\C[C@@](c2cccc(-n3cc(C(F)(F)F)c4cc(CN5CCC[C@H](C)C5)[nH]c4c3=O)c2)(c2nncn2C)C1` (some centres not stated), the inhibitory constant (Ki) was determined as 2.89 nM.

For the compound `C[C@H]1CCCN(Cc2cc3c(C(F)(F)F)cn(-c4cccc(C5(c6nncn6C)CC(F)(F)C5)c4)c(=O)c3[nH]2)C1`, the inhibition constant (Ki) is 1.18 nM.

Turning to `C[C@H]1CCCN(Cc2cc3c(C(F)(F)F)cn(-c4cccc(C5(Cc6nncn6C)CC(F)(F)C5)c4)c(=O)c3[nH]2)C1`, the Ki turned out to be 0.74 nM.

Regarding `CCN(Cc1cc2c(C(F)(F)F)cn(-c3cccc(C4(c5nncn5C)CCC4)c3)c(=O)c2[nH]1)CC(C)C`, the Ki came to 2.87 nM.

Consider `CCN(CC)Cc1cc2c(C(F)(F)F)cn(-c3cccc([C@]4(c5nncn5C)C[C@@H](C)C4)c3)c(=O)c2[nH]1`, for which the Ki was determined as 0.97 nM.

For `C[C@H]1CCCN(Cc2cc3c(C(F)(F)F)cn(-c4cccc([C@H](c5nncn5C)C5CCC5)c4)c(=O)c3[nH]2)C1`, the Ki amounted to 0.83 nM.

As for `CO[C@H]1C[C@](c2cccc(-n3cc(C(F)(F)F)c4cc(CN5CC6CC6C5)[nH]c4c3=O)c2)(c2nncn2C)C1` (some centres not stated), the Ki is 5.45 nM.

As to `C[C@H]1CCCN(Cc2cc3c(C(F)(F)F)cn(-c4cccc(C5(c6nncn6C)CC6(CC6)C5)c4)c(=O)c3[nH]2)C1`, the Ki came to 0.8 nM.

`Cn1cnnc1[C@]1(c2cccc(-n3cc(C(F)(F)F)c4cc(CN5CCCC6(CC6)C5)[nH]c4c3=O)c2)C[C@H](C)C1`: the Ki stood at 1.32 nM.

With `CCN(CC)Cc1cc2c(C(F)(F)F)cn(-c3cccc(C4(c5nncn5C)CCC4)c3)c(=O)c2[nH]1`, the Ki stood at 2.58 nM.

Regarding `Cn1cnnc1[C@]1(c2cccc(-n3cc(C(F)(F)F)c4cc(CN5CCC[C@@H]6C[C@@H]65)[nH]c4c3=O)c2)C[C@H](C)C1`, the inhibition constant (Ki) is 1.81 nM.

Turning to `C[C@H]1CCCN(Cc2cc3c(C(F)(F)F)cn(-c4cccc([C@@H](c5nncn5C)C5CCC5)c4)c(=O)c3[nH]2)C1`, the Ki worked out at 3.67 nM.

In the case of `CC[C@H]1C[C@@](c2cccc(-n3cc(C(F)(F)F)c4cc(CN5CCC[C@H](C)C5)[nH]c4c3=O)c2)(c2nncn2C)C1`, the Ki came to 1.14 nM.

In the case of `CO[C@H]1C[C@](c2cccc(-n3cc(C(F)(F)F)c4cc(CNC5(C)CCC5)[nH]c4c3=O)c2)(c2nncn2C)C1`, the Ki was 2.34 nM.

Consider `C[C@H]1CCCN(Cc2cc3c(C(F)(F)F)cn(-c4cccc([C@]5(c6nncn6C)C[C@H](OC(F)(F)F)C5)c4)c(=O)c3[nH]2)C1`, for which the Ki turned out to be 1.54 nM.

As for `Cn1cnnc1C1(c2cccc(-n3cc(C(F)(F)F)c4cc(CNC5(C)CCC5)[nH]c4c3=O)c2)CCC1`, the Ki was found to be 1.13 nM.

With `CC[C@H]1C[C@](c2cccc(-n3cc(C(F)(F)F)c4cc(CN5CCC[C@H](C)C5)[nH]c4c3=O)c2)(c2nncn2C)C1`, the Ki was determined as 1.22 nM.

Turning to `C[C@H]1CCCN(Cc2cc3c(C(F)(F)F)cn(-c4cccc(-c5ccccc5-c5nncn5C)c4)c(=O)c3[nH]2)C1`, the Ki stood at 7.04 nM.

As for `CO[C@H]1C[C@@](c2cccc(-n3cc(C(F)(F)F)c4cc(CN5CCCC6(CC6)C5)[nH]c4c3=O)c2)(c2nncn2C)C1`, the Ki was 2.29 nM.

Regarding `C[C@H]1CCCN(Cc2cc3c(C(F)(F)F)cn(-c4cccc(C5(c6nncn6C)CCC5)c4)c(=O)c3[nH]2)C1`, the Ki was 1.02 nM.

With `C[C@H]1CCCN(Cc2cc3ccn(-c4cccc(C5(Cc6nncn6C)COC5)c4)c(=O)c3[nH]2)C1`, the Ki came out at 18 nM.

`C[C@H]1CCCN(Cc2cc3c(C(F)(F)F)cn(-c4cccc(C5(c6nncn6C)COC5)c4)c(=O)c3[nH]2)C1`: the Ki was determined as 5.29 nM.

For `C[C@H]1CCCN(Cc2cc3c(C4CC4)cn(-c4cccc([C@@H](c5nncn5C)C5CCC5)c4)c(=O)c3[nH]2)C1`, the Ki is 38.2 nM.

With `C[C@H]1CCCN(Cc2cc3c(C(F)(F)F)cn(-c4cccc([C@]5(c6nncn6C)C[C@H](F)C5)c4)c(=O)c3[nH]2)C1`, the Ki came out at 1.41 nM.

For the compound `C[C@H]1CCCN(Cc2cc3c(Br)cn(-c4cccc(C5(Cc6nncn6C)COC5)c4)c(=O)c3[nH]2)C1`, the Ki came out at 2.79 nM.

For `Cn1cnnc1C1(c2cccc(-n3cc(C(F)(F)F)c4cc(CN5CCCC6(CC6)C5)[nH]c4c3=O)c2)CCC1`, the Ki is 1.82 nM.

Regarding `C[C@H]1CCCN(Cc2cc3c(C4CC4)cn(-c4cccc(C5(C(F)c6nncn6C)CC(F)(F)C5)c4)c(=O)c3[nH]2)C1` (some centres not stated), the Ki came to 2.34 nM.

Regarding `Cn1cnnc1[C@]1(c2cccc(-n3cc(C(F)(F)F)c4cc(CN5CC6CC6C5)[nH]c4c3=O)c2)C[C@H](C)C1` (some centres not stated), the Ki came out at 0.86 nM.

For the compound `Cn1cnnc1C1(c2cccc(-n3cc(C(F)(F)F)c4cc(CN5CCC[C@@H]6C[C@@H]65)[nH]c4c3=O)c2)CCC1`, the inhibition constant (Ki) was 4.19 nM.

Take `C[C@H]1CCCN(Cc2cc3c(S(C)(=O)=O)cn(-c4cccc(C5(Cc6nncn6C)COC5)c4)c(=O)c3[nH]2)C1`: the Ki is 14.2 nM.

Turning to `CO[C@H]1C[C@](c2cccc(-n3cc(C(F)(F)F)c4cc(CN5CC6CCC(C6)C5)[nH]c4c3=O)c2)(c2nncn2C)C1`, the Ki is 5.43 nM.

With `Cn1cnnc1[C@]1(c2cccc(-n3cc(C(F)(F)F)c4cc(CN5CC6CCC(C6)C5)[nH]c4c3=O)c2)C[C@H](C)C1`, the Ki is 1.74 nM.

For `C[C@H]1CCCN(Cc2cc3c(C4CC4)cn(-c4cccc(C5(Cc6nncn6C)CC(F)(F)C5)c4)c(=O)c3[nH]2)C1`, the Ki was determined as 1.68 nM.

Take `C[C@H]1CCCN(Cc2cc3c(C4CC4)cn(-c4cccc([C@H](c5nncn5C)C5CCC5)c4)c(=O)c3[nH]2)C1`: the Ki was determined as 1.4 nM.

Take `C[C@H]1CCCN(Cc2cc3c(C(F)(F)F)cn(-c4cccc([C@]5(c6nncn6C)C[C@@H](OC(F)(F)F)C5)c4)c(=O)c3[nH]2)C1`: the Ki was found to be 1.34 nM.

In the case of `CO[C@H]1C[C@@](c2cccc(-n3cc(C(F)(F)F)c4cc(CN5CC6CC6C5)[nH]c4c3=O)c2)(c2nncn2C)C1` (some centres not stated), the inhibitory constant (Ki) is 3.01 nM.
